Legend:
Format in all cases: toxicity, cell-based, Cricetulus griseus
Conditions in all cases: chinese hamster, 168 h, time 7 day
CHO [1] = test: Cytotoxicity against CHO cells expressing AGT G41R variant and glycolate oxidase assessed as reduction in cell viability at 50 uM measured after 7 days by crystal violet staining assay
CHO [2] = test: Cytotoxicity against CHO cells expressing AGT and glycolate oxidase assessed as reduction in cell viability at 50 uM measured after 7 days by crystal violet staining assay
CHO [3] = test: Cytotoxicity against CHO cells expressing AGT G41R variant and glycolate oxidase assessed reduction in cell viability at 50 uM measured after 7 days in presence of pyridoxine by crystal violet staining assay

| Compound | Activity (CHO [1]) | Activity (CHO [2]) | Activity (CHO [3]) |
| --- | --- | --- | --- |
| Cl.NOCc1ccc(F)cc1F | Non-Toxic | Non-Toxic |  |
| NOCc1cc2ccccc2s1 |  | Non-Toxic |  |
| COc1c(C)cnc(CON)c1C | Non-Toxic | Non-Toxic | Non-Toxic |
| NOCc1cccc(-c2ccc(C(F)(F)F)cc2)c1 | Non-Toxic | Non-Toxic | Non-Toxic |
| CN1CCN(c2cccc(CON)c2)CC1 | Toxic | Toxic | Toxic |
